In PubChem BioAssay (NCI):
Several values for one entry are separate records, joined by “and”; a condition that tells them apart may be missing. Identical values can stand only once.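 Cultured in 96-well plates, cells were exposed to test compound for 48 hours across five concentrations. Here, GI50 denotes the concentration required for 50% inhibition of growth. TGI marks complete inhibition of growth.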

Legend:
Test in all cases: DTP human tumour cell line panel, 48 h
[1] = tested on: UACC-257 melanoma
[2] = tested on: NCI-H460 lung
[3] = tested on: MOLT-4 leukemia
[4] = tested on: SNB-19 CNS
[5] = tested on: OVCAR-5 ovarian
[6] = tested on: SF-295 CNS
[7] = tested on: MALME-3M melanoma
[8] = tested on: SK-OV-3 ovarian
[9] = tested on: UACC-62 melanoma
[10] = tested on: NCI-H23 lung
[11] = tested on: CCRF-CEM leukemia

SMILES	TGI [1]	TGI [2]	TGI [3]	TGI [4]	TGI [5]	TGI [6]	TGI [7]	TGI [8]	TGI [9]	TGI [10]	TGI [11]	GI50 [3]	GI50 [8]	GI50 [9]	GI50 [1]	GI50 [4]	GI50 [5]	GI50 [6]	GI50 [10]	GI50 [11]
Cn1c(=O)c(Cl)c(N=[N+]=[N-])c2ccccc21	> 100 µM	> 100 µM	> 100 µM	> 100 µM	> 100 µM	> 100 µM	> 100 µM	> 100 µM	> 100 µM	> 100 µM	> 100 µM	–	–	–	–	–	–	–	–	–
CCN1CCC(O)(c2ccc(O)cc2)C(C(=O)c2ccc(O)cc2)C1 (stereo unspecified)	32.4 µM	> 100 µM	46 µM	> 100 µM	35.6 µM	> 100 µM	38.8 µM	> 100 µM	30.9 µM	44.4 µM	30 µM	–	–	–	–	–	–	–	–	–
O=c1oc2ccc([N+](=O)[O-])cc2cc1Br	> 100 µM	> 100 µM	> 100 µM	> 100 µM	> 100 µM	> 100 µM	> 100 µM	–	> 100 µM	> 100 µM	> 100 µM	–	–	–	–	–	–	–	–	–
CC1=C2C3OC(=O)C(C)C3CCC2(C)C=CC1=Nc1ccccc1 (stereo unspecified)	> 100 µM	> 100 µM	> 100 µM	> 100 µM	> 100 µM	> 100 µM	> 100 µM	> 100 µM	> 100 µM	> 100 µM	> 100 µM	–	–	–	–	–	–	–	–	–
CC(=O)Nc1ccc(Sc2nnc(NC(C)=O)s2)cc1	> 100 µM	> 100 µM	> 100 µM	> 100 µM	> 100 µM	> 100 µM	–	> 100 µM	–	–	> 100 µM	–	–	–	–	–	–	–	–	–
CCOC(=O)C(OP(=O)(OCC)OCC)C(F)(F)F (stereo unspecified)	> 100 µM	> 100 µM	> 100 µM	> 100 µM	> 100 µM	–	> 100 µM	> 100 µM	> 100 µM	> 100 µM	> 100 µM	–	–	–	–	–	–	–	–	–
COC1C(O)C(C)OC(OC2CCC3(C)C(CCC4C3C(O)CC3(C)C(C5=CC(=O)OC5)CCC43O)C2)C1O (stereo unspecified)	3.13 µM	0.777 µM	0.174 µM	2.04 µM	1.77 µM	1.23 µM	0.667 µM	0.905 µM	1.25 µM	0.308 µM	–	–	–	–	–	–	–	–	–	–
C=CCCCCCCCCC(=O)O	492 µM	191 µM	265 µM	362 µM	351 µM	200 µM	302 µM	294 µM	190 µM	274 µM	292 µM	–	–	–	–	–	–	–	–	–
COc1cc(C=O)cc(O)c1O	> 100 µM	> 100 µM	> 100 µM	> 100 µM	–	> 100 µM	> 100 µM	> 100 µM	> 100 µM	> 100 µM	> 100 µM	–	–	–	–	–	–	–	–	–
O=C1c2ccccc2C(=O)N1CC(CN1C(=O)c2ccccc2C1=O)(C(=O)OCc1ccccc1)C(=O)OCc1ccccc1	–	> 100 µM	> 100 µM	> 100 µM	> 100 µM	> 100 µM	> 100 µM	> 100 µM	> 100 µM	> 100 µM	> 100 µM	–	–	–	–	–	–	–	–	–
O=c1c([OH2+])c(-c2ccc(O)cc2[O-])oc2cc(O)cc([O-])c12.O=c1c([OH2+])c(-c2ccc(O)cc2[O-])oc2cc(O)cc([O-])c12.[Ti+4]	> 100 µM	> 100 µM	> 100 µM	> 100 µM	> 100 µM	> 100 µM	> 100 µM	> 100 µM	> 100 µM	> 100 µM	> 100 µM	> 100 µM	> 100 µM	> 100 µM	–	–	–	–	–	–
COc1cccc2c1C(=O)c1c(O)c3c(c(O)c1C2=O)C[C@@](O)(C(=O)CO)CC3OC1CC(NCCCC(OC(C)=O)OC(C)=O)C(O)C(C)O1 (stereo partly specified)	0.00739 µM and 0.00144 µM	–	–	–	0.701 µM	0.000645 µM	0.00452 µM	> 1 µM	–	–	> 1 µM	0.000123 µM	0.000298 µM	< 0.0001 µM	0.000314 µM	0.000202 µM	0.000347 µM	< 0.0001 µM	< 0.0001 µM	0.000104 µM
CCOC(=O)C(=O)NC12CC3CC(CC(C3)C1)C2	> 100 µM	> 100 µM	–	> 100 µM	> 100 µM	> 100 µM	> 100 µM	> 100 µM	> 100 µM	> 100 µM	> 100 µM	–	–	–	–	–	–	–	–	–
